Marks after values point to notes of the source that are not given here.
Assays:
[1] = system: high fat diet induced NASH model rats; assay: High fat diet (HFD) induced NASH rat model; type: in vivo; conditions: for Liver TC / Liver TG / Serum LDL-c / Serum TG: HFD induced NASH model rats; for Liver TC / Liver TG / Serum LDL-c / Serum TG / ALT / AST: n = 8; for ALT / AST: serum of HFD induced NASH model rats
Description: Animal: 32 SD male rats of SPF level with 6 weeks old and 220 g were purchased from Beijing Vital River Laboratory Animal Technology Co., Ltd. All the animals maintained 12 h alternative circadian rhythm with free access to food.
Reagent: the ginsenoside Ro (I) was purchased from Shanghai Boka Chemistry Technology Co., Ltd; obeticholic acid (OCA) was purchased from Jiangsu Vcare PharmaTech Co., Ltd; high fat diets were purchased from Research Diets (D12492, 60 kcal %); and standard feeds were purchased from Research Diets (D12450B, 10 kcal %).
The rats were randomly divided into 4 groups based on the weight: a control group (CHOW), a high fat diet model group (HFD), a positive drug obeticholic acid (OCA, 5 mg/Kg) group (HFD+OCA) and a ginsenoside Ro (Ro for short, 5 mg/kg) group (HFD+Ro). The control group was fed with the standard feeds and drank water normally; and the rest groups were fed with the high fat diets, drank 10% aqueous sucrose solution for replacing the water and were modeled for 20 weeks.
After 20 weeks, the control group and the high fat diet model group were given with a CMC-Na solution with the volume fraction of 0.5% intragastrically every day, the HFD+OCA group was given with the obeticholic acid (5 mg/Kg) intragastrically every day, and the HFD+Ro was given with the ginsenoside Ro (5 mg/Kg) intragastrically every day. Administration was conducted for 8 weeks, during which, the control group was given with the standard feeds and drank the water normally, and the rest three groups were given with the high fat diets and drank 10% aqueous sucrose solution. The rats in each group were weighed every day, weights, hairs, feces and activity conditions were carefully observed and recorded.
The rats were deprived of food but not water for 12 h in advance; and the next morning, blood was taken from eye sockets, the rats were sacrificed, and livers were harvested. Right liver lobule tissues were fixed with 4% paraformaldehyde for HE stained slicing. A part of liver tissues were divided into 3 parts, which were snap-frozen in liquid nitrogen for subsequent detection of other indexes.
Whole blood was left to still standing for 2 h at room temperature, centrifugation was conducted for 15 min at 3000 rpm, and a serum was collected. 100 Mg of liver tissues were taken and homogenized with 0.9 mL of precooled normal saline, a homogenate was centrifuged for 15 min at 4° C. and 3000 rpm, and a supernatant was taken. Both of the serum and the supernatant were sent to Pathologic Department of Hospital of Integrated Traditional Chinese and Western Medicine in Jiangsu Province for determination of levels of triglyceride (TG), total cholesterol (TC), low density lipoprotein cholesterin (LDL-c) and high density lipoprotein cholesterol (HDL-c) in the serum and levels of the TG and the TC in the supernatant of the homogenate of the liver tissues with the full-automatic biochemical analyzer.
Pretreated tissues were sent to Google Biotechnology Co., Ltd for preparing HE stained slices and oil red stained slices.
Liver tissues preserved at −80° C. were put in the liquid nitrogen, about 10 mg of the liver tissues were quickly dissected out, 500 μL of precooled tissue lysate was added, and the tissues were homogenized with a homogenizer and then left to lyse on ice for 30 min; and centrifugation was conducted for 15min at 4° C. and 12000 rpm, […] of a supernatant was sucked to a clean EP tube, […] of the supernatant was taken for BCA protein quantification, […] of 5*loading buffer was added in the rest protein supernatant for denaturing by boiling, SDS-PAGE electrophoresis was conducted subsequently, the proteins were transferred onto a PVDF membrane, then incubation and elution of a relevant antibody were conducted, and finally, a chemiluminescence apparatus was employed for imaging analysis.

[2] = system: AMPK in Huh-7 cells; assay: Activation activity on AMPK in Huh-7 cells (Western Blot); type: cell-based; conditions: 10 μM, 12 h, Western Blot gray scale, relative to DMSO = 1
Description: The activation activity of a compound on AMPK in Huh-7 cells was detected by using Western Blot.
Cell culture conditions: Huh-7 cells were cultured in an incubator with 5% CO2 at 37° C. in DMEM complete medium (containing 10% fetal calf serum and 1% streptomycin/penicillin).
Antibody: anti-AMPK (CST, 2532S); anti-pAMPK (CST, 2535S).
Western Blot experiment: the influence of the compound on phosphorylation level of the AMPK in the Huh-7 cells was detected: cells with more than 90% cells alive were taken for the experiment. In a 12-well plate, the Huh-7 cells were plated in the plate at 250000 cells per well, the plate was placed in the incubator with 5% CO2 at 37° C. for culture, an original culture medium was discarded after 12 h, a complete medium containing the pentacyclic triterpenoid saponin was added, a final concentration of subject pentacyclic triterpenoid saponin was set to be 10 μM, and an administration time was set to be 12 h. A positive control compound employs AICAR (100 μM), metformin (70 μM) or A-769662 (100 μM). Then proteins were extracted for Western Blot detection.
Experimental result: a Western Blot experimental result was subjected to gray scale scanning, a p-AMPK/AMPK ratio of negative control DMSO was defined as 1, and a p-AMPK/AMPK ratio of the subject compound was a relative ratio of a negative control group. The larger the numerical value was, the stronger the activation activity of the AMPK of the compound was.

[3] = HFD NASH rats, summary in words
[4] = HFD NASH rats, 5 mg/Kg intragastrically every day, 8 weeks (FIG. 4)
[5] = HFD NASH rats, 5 mg/Kg, 8 weeks, q-PCR (FIG. 6)
[6] = HFD NASH rats, 5 mg/Kg, 8 weeks, q-PCR (FIG. 7)

| Compound | inflammatory responses of the livers [1, 3] | lipid accumulation, caused by the high fat diets, of the rat livers [1, 3] | Liver TC ([1]; 5 mg/Kg) | Liver TG ([1]; 5 mg/Kg) | Serum LDL-c ([1]; 5 mg/Kg) | Serum TG ([1]; 5 mg/Kg) | ALT ([1]; 5 mg/Kg) | AST ([1]; 5 mg/Kg) | pAMPK/AMPK ratio [2] | also measured |
| --- | --- | --- | --- | --- | --- | --- | --- | --- | --- | --- |
| C[C@@H]1CC[C@]2(C(=O)O)CC[C@]3(C)C(=CC[C@@H]4[C@@]5(C)CC[C@H](O[C@@H]6OC[C@H](O)[C@H](O)[C@H]6O)C(C)(C)[C@@H]5CC[C@]43C)[C@@H]2[C@]1(C)O [(XIII), ziyuglycoside II] | inhibit | effectively lower | 0.503 ± 0.256** mmoL/gprot | 1.299 ± 0.387** mmoL/gprot | 45.36 ± 5.37** mg/dL | 19.41 ± 4.37* mg/dL | 69.28 ± 12.33** U/L | 122.16 ± 17.38** U/L | 2.51 |  |
| C[C@H]1O[C@@H](O[C@H]2CC[C@@]3(C)[C@@H](CC[C@]4(C)[C@@H]3C=C[C@]35OC[C@@]6(CCC(C)(C)C[C@H]63)[C@H](O)C[C@]54C)[C@]2(C)CO)[C@H](O)[C@@H](O[C@@H]2O[C@H](CO)[C@@H](O)[C@H](O)[C@H]2O)[C@H]1O [(VIII), saikosaponin D] | inhibit | effectively lower | 0.509 ± 0.248** mmoL/gprot | 1.173 ± 0.606*** mmoL/gprot | 46.75 ± 7.35** mg/dL | 19.66 ± 5.12* mg/dL | 67.74 ± 8.29** U/L | 121.43 ± 9.28** U/L | 2.0 |  |
| CC1(C)CC[C@]2(C(=O)O[C@@H]3O[C@H](CO)[C@@H](O)[C@H](O)[C@H]3O)CC[C@]3(C)C(=CC[C@@H]4[C@@]5(C)CC[C@H](O[C@@H]6O[C@H](C(=O)O)[C@@H](O)[C@H](O)[C@H]6O[C@@H]6O[C@H](CO)[C@@H](O)[C@H](O)[C@H]6O)C(C)(C)[C@@H]5CC[C@]43C)[C@@H]2C1 [(I), ginsenoside Ro] | inhibits | significantly lower |  |  |  |  |  |  | 2.39 | level of the HDL-c in the serum [1, 4]: effectively lower; level of the LDL-c in the serum [1, 4]: effectively lower; level of the TC in the serum [1, 4]: effectively lower; contents of the TC in the livers ([1]; HFD NASH rats, 5 mg/Kg intragastrically every day, 8 weeks (FIG. 5)): significantly lowered; level of the TG in the serum ([1]; HFD NASH rats, 5 mg/Kg intragastrically every day, 8 weeks, vs HFD model group (FIG. 4)): significantly lower; level of the TG in the liver ([1]; HFD NASH rats, 5 mg/Kg intragastrically every day, 8 weeks, vs HFD model group (FIG. 5)): significantly lower; mRNA expression level of IL-6 in liver [1, 5]: significantly inhibit increase; mRNA expression level of IL-10 in liver [1, 5]: significantly inhibit increase; mRNA expression level of TNF-α in liver [1, 5]: significantly inhibit increase; mRNA expression level of TGF-β in liver [1, 6]: significantly inhibit increase; mRNA expression level of α-SMA in liver [1, 6]: significantly inhibit increase; liver fibrosis [1, 3]: inhibits |
| C[C@H]1O[C@@H](O[C@H]2CC[C@@]3(C)[C@@H](CC[C@]4(C)[C@@H]3C=C[C@]35OC[C@@]6(CCC(C)(C)C[C@H]63)[C@@H](O)C[C@]54C)[C@]2(C)CO)[C@H](O)[C@@H](O[C@@H]2O[C@H](CO)[C@@H](O)[C@H](O)[C@H]2O)[C@H]1O [(VII), saikosaponin A] | inhibit | effectively lower | 0.518 ± 0.133** mmoL/gprot | 1.268 ± 0.294** mmoL/gprot | 47.06 ± 7.83* mg/dL | 20.43 ± 4.04* mg/dL | 71.36 ± 9.26* U/L | 115.24 ± 19.23*** U/L | 1.76 |  |
| CC1(C)CC[C@]2(C(=O)O[C@@H]3O[C@H](CO[C@@H]4O[C@H](CO)[C@@H](O)[C@H](O)[C@H]4O)[C@@H](O)[C@H](O)[C@H]3O)CC[C@]3(C)C(=CC[C@@H]4[C@@]5(C)CC[C@H](O[C@@H]6OC[C@H](O)[C@H](O)[C@H]6O)[C@@](C)(CO)[C@@H]5CC[C@]43C)[C@@H]2C1 [(II), asperosaponin VI] |  |  |  |  |  |  |  |  | 2.90 |  |
| C[C@@H]1O[C@@H](O[C@H]2[C@H](O[C@H]3CC[C@@]4(C)[C@@H](CC[C@]5(C)[C@@H]4CC=C4[C@@H]6CC(C)(C)CC[C@]6(C(=O)O)CC[C@]45C)[C@]3(C)CO)OC[C@H](O)[C@@H]2O)[C@H](O)[C@H](O)[C@H]1O [(X), α-hederin] |  |  |  |  |  |  |  |  | 3.33 |  |
| C[C@@H]1CC[C@]2(C(=O)O[C@@H]3O[C@H](CO)[C@@H](O)[C@H](O)[C@H]3O)CC[C@]3(C)C(=CC[C@@H]4[C@@]5(C)CC[C@H](O[C@@H]6OC[C@H](O)[C@H](O)[C@H]6O)C(C)(C)[C@@H]5CC[C@]43C)[C@@H]2[C@]1(C)O [(XII), ziyuglycoside I] | inhibit | effectively lower | 0.547 ± 0.272* mmoL/gprot | 1.302 ± 0.443** mmoL/gprot | 48.52 ± 6.98* mg/dL | 18.32 ± 2.51** mg/dL | 74.03 ± 12.38* U/L | 120.91 ± 19.32** U/L | 2.45 |  |
| C[C@@H]1O[C@@H](O[C@H]2[C@H](O[C@H]3CC[C@@]4(C)[C@@H](CC[C@]5(C)[C@@H]4CC=C4[C@@H]6CC(C)(C)CC[C@]6(C(=O)O[C@@H]6O[C@H](CO[C@@H]7O[C@H](CO)[C@@H](O[C@@H]8O[C@@H](C)[C@H](O)[C@@H](O)[C@H]8O)[C@H](O)[C@H]7O)[C@@H](O)[C@H](O)[C@H]6O)CC[C@]45C)[C@]3(C)CO)OC[C@H](O)[C@@H]2O)[C@H](O)[C@H](O)[C@H]1O [(XI), hederacoside C] |  |  |  |  |  |  |  |  | 1.95 |  |
